Among the data in ChEMBL document CHEMBL1147943, “Antiproliferative activity of 4-chloro-5,6-dihydro-2H-pyrans. Part 2: Enhancement of drug cytotoxicity” (2007) are GI50, TGI and CC50 values, retold here.

Broadly, the GI50 is the concentration giving 50% growth inhibition. For orientation: TGI means the concentration giving total growth inhibition.

Common to all, as to type: functional
Holding throughout (conditions): for CC50: read-out: LC50 (the source's name)

One test concerns WiDr. Briefly: Antiproliferative activity against human WiDr cells.
The subject of another test is A2780. Briefly: Antiproliferative activity against human A2780 cells.
The test system of a further test is SW1573. Briefly: Antiproliferative activity against human SW1573 cells.

As to `C[C@H]1CC(Cl)=C([Si](C)(C)C)[C@@H](C2CCCCC2)O1`, in the test on WiDr, growth was halved (GI50) at 15 µM, the TGI amounted to 33 µM and the CC50 came out at 74 µM. Besides, in the test with A2780, the GI50 was 17 µM, net growth stopped (TGI) at 32 µM and the CC50 is 61 µM. Also, in the test on SW1573, growth was halved (GI50) at 16 µM, the TGI was determined as 31 µM and the CC50 worked out at 62 µM.

Turning to `C#CCCC1C=C(Cl)CCO1` (centres undefined), the GI50 in the test on WiDr was above 100 µM; in the test on A2780, 37 µM; in the test with SW1573, 41 µM.

For the molecule `C[Si](C)(C)C1=C(Cl)C[C@H](Cc2ccccc2)O[C@@H]1C1CCCCC1`, the GI50 in the test with WiDr amounted to 62 µM; with A2780, 34 µM; with SW1573, 30 µM. Besides, the TGI in the test with WiDr was determined as 88 µM; in the test on A2780, 78 µM.

Molecule `C[Si](C)(C)C1=C(Cl)C[C@H](Cc2ccccc2)O[C@@H]1CCCCCCCCCC1C=C(Cl)CCO1` (some centres undefined) gave a GI50 in the test with WiDr of 67 µM. In addition, in the test on A2780, halving of growth (GI50) required 23 µM, the TGI amounted to 47 µM and the CC50 worked out at 96 µM. In the test on SW1573, this molecule returned a GI50 of 30 µM and a TGI of 68 µM.

For the molecule `CC(C)CC1OCCC(Cl)=C1[Si](C)(C)C` (centres undefined), in the test with WiDr, it took 20 µM to inhibit growth by half (GI50), the TGI is 39 µM and the CC50 amounted to 79 µM. Also, in the test with A2780, the GI50 is 27 µM, net growth stopped (TGI) at 66 µM and the CC50 amounted to 92 µM. In the test with SW1573, it took 10 µM to inhibit growth by half (GI50), net growth stopped (TGI) at 28 µM and the CC50 is 65 µM.

For the molecule `C[C@@H]1O[C@H](CCC=C(Br)Br)C([Si](C)(C)C)=C(Cl)[C@H]1C`, in the test with WiDr, halving of growth (GI50) required 25 µM and the TGI stood at 90 µM. Moreover, in the test on A2780, the GI50 came out at 16 µM, the TGI came to 33 µM and the CC50 was found to be 70 µM. In the test on SW1573, the GI50 is 22 µM, the TGI is 43 µM and the CC50 worked out at 87 µM.

As for `ClC1=CC(CCCCCCCCCCC2C=C(Cl)CCO2)OCC1` (centres undefined), in the test with WiDr, the GI50 stood at 20 µM, the TGI turned out to be 61 µM and the CC50 stood at 89 µM. Besides, in the test with A2780, it took 8.6 µM to inhibit growth by half (GI50), the TGI was 25 µM and the CC50 is 65 µM. Further, in the test on SW1573, the GI50 was 14 µM, the TGI is 36 µM and the CC50 is 85 µM.

Regarding `C=CCC[C@H]1O[C@@H](C)[C@H](C)C(Cl)=C1[Si](C)(C)C`, the GI50 in the test on WiDr came to 37 µM. For the same molecule, in the test on A2780, growth was halved (GI50) at 17 µM, the TGI was 36 µM and the CC50 came out at 19 µM. In the test with SW1573, it took 23 µM to inhibit growth by half (GI50), net growth stopped (TGI) at 55 µM and the CC50 turned out to be 92 µM.

For `C[C@@H]1O[C@H](C2CCCCC2)C([Si](C)(C)C)=C(Cl)[C@H]1C`, in the test on WiDr, halving of growth (GI50) required 42 µM and the TGI was determined as 84 µM. In the test with A2780, the GI50 was found to be 19 µM, net growth stopped (TGI) at 38 µM and the CC50 amounted to 77 µM. For the same molecule, in the test on SW1573, growth was halved (GI50) at 20 µM, total growth inhibition (TGI) required 41 µM and the CC50 came out at 76 µM.

For `ClC1=CC(CCC=C(Br)Br)OCC1` (centres undefined), in the test with WiDr, the GI50 is 23 µM, the TGI was 57 µM and the CC50 stood at 96 µM. Further, in the test on A2780, halving of growth (GI50) required 16 µM, the TGI turned out to be 53 µM and the CC50 was 76 µM. Besides, in the test on SW1573, the GI50 came out at 30 µM and net growth stopped (TGI) at 92 µM.

In the test with WiDr, `C[C@H]1CC(Cl)=C[C@@H](C2CCCCC2)O1` registered a GI50 of 65 µM. Also, in the test on A2780, the GI50 amounted to 19 µM, the TGI stood at 38 µM and the CC50 was found to be 79 µM. For the same molecule, in the test on SW1573, the GI50 came out at 12 µM and the TGI came out at 43 µM.

In the case of `CC(C)CC1C=C(Cl)CCO1` (centres undefined), the GI50 with WiDr, with A2780 and with SW1573 was above 100 µM throughout.

Take `CC[C@@H](C)[C@H]1O[C@@H](C)CC(Cl)=C1[Si](C)(C)C`: the GI50 in the test on WiDr, in the test on A2780 and in the test with SW1573 was above 100 µM throughout.

`ClC1=CC(C2CCCCC2)OCC1` (centres undefined): the results for the GI50 in the test on WiDr, in the test with A2780 and in the test on SW1573 were 100 µM, 20 µM and 26 µM, respectively.

For the molecule `C[Si](C)(C)C1=C(Cl)C[C@H](C2CCCCC2)O[C@@H]1C1CCCCC1`, in the test with WiDr, growth was halved (GI50) at 30 µM, the TGI was determined as 81 µM and the CC50 amounted to 97 µM. Besides, in the test on A2780, the GI50 turned out to be 22 µM, the TGI is 46 µM and the CC50 was found to be 90 µM. In the test with SW1573, the GI50 was determined as 23 µM, net growth stopped (TGI) at 48 µM and the CC50 came to 88 µM.

With `CC[C@H]1CC(Cl)=C([Si](C)(C)C)[C@@H](C2CCCCC2)O1`, the results for the GI50 in the test on WiDr, in the test with A2780 and in the test on SW1573 were 29 µM, 16 µM and 22 µM, respectively. The values for the TGI in the test with WiDr, in the test on A2780 and in the test on SW1573 were 73 µM, 35 µM and 49 µM, respectively. Besides, the CC50 with WiDr came to 95 µM; in the test with A2780, 75 µM; in the test with SW1573, 91 µM.

Take `C#CCC[C@H]1O[C@@H](C)[C@H](C)C(Cl)=C1[Si](C)(C)C`: in the test on WiDr, it took 24 µM to inhibit growth by half (GI50), total growth inhibition (TGI) required 68 µM and the CC50 is 85 µM. In the test with A2780, halving of growth (GI50) required 21 µM, total growth inhibition (TGI) required 39 µM and the CC50 was determined as 75 µM. Further, in the test on SW1573, the GI50 is 19 µM, the TGI amounted to 37 µM and the CC50 was 75 µM.
